Where two headings read alike, the source gives them in different places. Square brackets hold non-standard residues; d marks the D form. Peptide text beside a SMILES is read from it. * marks the point of attachment. Phe(4-NO2) = N[C@@H](Cc1ccc([N+](=O)[O-])cc1)C(=O)O; Phe(4-N3) = [N-]=[N+]=Nc1ccc(C[C@H](N)C(=O)O)cc1; Phe(4-F) = N[C@@H](Cc1ccc(F)cc1)C(=O)O; 1Nal = N[C@@H](Cc1cccc2ccccc12)C(=O)O; 2Nal = N[C@@H](Cc1ccc2ccccc2c1)C(=O)O; Dmt = Cc1cc(O)cc(C)c1C[C@H](N)C(=O)O; NMeF = CN[C@@H](Cc1ccccc1)C(=O)O; Tic = O=C(O)[C@@H]1Cc2ccccc2CN1; dNle = CCCC[C@@H](N)C(=O)O; Bn = c1ccc(C*)cc1
Key:
μ receptor = biological target: T1, μ receptor (Rattus norvegicus, UniProt P33535); assay: Radioligand binding assay, μ opioid receptor ((3H)-DAMGO, brain membranes)
T1 construct: the brains (minus the cerebellum) were removed, placed in ice-cold saline solution, and then homogenized; from tissue; host or cells: rat brain (minus cerebellum) membranes
Protocol: (§1) PBQ (phenyl-ρ-benzoquinone) induced writhing in mice is an assessment of both central and peripheral analgesia (see Sigmund, et al., Proc. Soc. Exp. Biol. Med. 95:729 (1957)). Central analgesia is determined by the inhibition of a hot-plate response in mice (see, Wolfe, et al., J. Pharmacol. Exp. Ther. 80:300 (1944)). Assays measuring opioid receptor binding affinities for μ and δ receptors as well as the GPI assay were determined through experimental protocol set out in Schiller et al. (Biophys. Res. Commun. 85:1322 (1975)). The references by Sigmund, et al., Wolfe, et al., and Schiller, et al. are each hereby incorporated by reference.
(§2) Male Sprague-Dawley rats weighing between 350-450 g were sacrificed by inhalation of CO2. The rats were decapitated and the brains (minus the cerebellum) were removed, placed in ice-cold saline solution, and then homogenized in ice-cold 50 mM Tris buffer pH 7.4 (10 ml/brain). Membranes were centrifuged at 14000 rpm for 30 min. at 4° C. The pellets were re-suspended in approximately 6 ml/brain of ice-cold Tris buffer 50 mM pH 7.4 and stored at −78° C. until ready for use. Protein quantification of the brain homogenate was conducted according to protein assay kit purchased (Bio-Rad).
(§3) (^3H)-DAMGO and (^3H)-DAGLE were used as radioligands for the μ and δ receptors, respectively. Radioligand 50 μl, membranes 100 μl, and serially diluted test compound were incubated for 1 hr at 22° C. Nonspecific binding was determined using a 500 fold excess of unlabeled ligand in the presence of tracer and membranes. Free ligand was separated from bound by filtration through Whatman GF/B paper (presoaked in polyethylenimine 1% aqueous solution) and rinsing with ice-cold 50 mM Tris pH 7.4 using a Brandel cell harvester. The filters were dried and radioactivity was counted in a 24 well microplate in the presence of 500 μl scintillant per well. Radioactivity was measured using a Wallace 1450 Microbeta counter. Ki's for the various compounds were determined from the IC50 according to the Cheng and Prusoff equation.

μ receptors = μ receptors (Cavia porcellus, UniProt P97266); assay: Guinea Pig Ileum (GPI) assay, longitudinal muscle preparation
Protocol: The activity of the peptide compounds on μ receptors was determined using the Guinea Pig Ileum (GPI) assay (longitudinal muscle preparation) according to the procedures described in Schiller et al., Biophys. Res. Commun. 85:1322 (1975).

[1] = system: PBQ induced writhing in mice; assay: PBQ (phenylquinone)-induced writhing assay; assay type: in vivo, mouse; conditions: for ED50(PBQ): mouse s.c.; for Writhing ED50: Table 2, mouse
Protocol: The test was performed on CD #1 male mice weighing between 18 and 22 g. Mice were weighed, marked and then injected, by the intraperitoneal route, with 0.3 ml/20 g by weight of a solution of phenylquinone at 0.02%. The contortions which appeared during a 15 minute time period following the injection were counted. The phenylquinone was injected at time intervals of 5, 20 or 60 minutes after administration of the compound (or medium, or standard) by subcutaneous route. It was injected at time intervals of 60 minutes after the administration of the compound (or medium, or standard) by oral route;
The 0.02% phenylquinone solution was prepared as follows: 20 mg of phenylquinone was dissolved in 5 ml ethanol 90% (Sigma). The dissolved phenylquinone was slowly added to 95 ml of distilled water continuously shaken and preheated (not boiled). The phenylquinone solution was, at all times protected from light and a new solution was prepared every day for the test. Each group usually contained 10 mice. If an antagonist, such as naloxone, was used, it was administered 20 minutes before the compound (or the medium, or the standard) by the intraperitoneal route.
Writhing assays were performed on CD#1 male mice weighing between […]. Assays were carried out as described in Example 3 and results are summarized below in Table 2.

[2] = system: hot-plate response in mice; conditions: in vivo; for Hot Plate: sc; for central analgesic effect in the mouse hot plate test: 100 mg/kg
δ receptor = δ receptor (Rattus norvegicus, UniProt P33533); assay: biochemical
Protocol: as §1, §2, §3

T1 sequence (P33535 whole entry): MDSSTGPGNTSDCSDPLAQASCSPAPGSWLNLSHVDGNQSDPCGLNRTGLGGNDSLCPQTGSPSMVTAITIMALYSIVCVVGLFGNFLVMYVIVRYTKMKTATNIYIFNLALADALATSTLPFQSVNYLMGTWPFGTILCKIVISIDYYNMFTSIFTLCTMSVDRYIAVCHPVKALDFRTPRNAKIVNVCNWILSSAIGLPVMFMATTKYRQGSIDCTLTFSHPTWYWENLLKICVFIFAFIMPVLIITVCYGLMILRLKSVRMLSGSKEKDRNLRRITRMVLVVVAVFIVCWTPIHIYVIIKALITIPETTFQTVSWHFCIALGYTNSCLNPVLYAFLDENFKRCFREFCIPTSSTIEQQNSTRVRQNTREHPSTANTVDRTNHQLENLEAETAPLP
Sequence of μ receptors (P97266 whole entry, looked up): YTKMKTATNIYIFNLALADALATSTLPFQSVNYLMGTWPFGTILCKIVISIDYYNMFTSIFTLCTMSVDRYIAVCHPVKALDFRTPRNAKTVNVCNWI
Sequence of δ receptor (P33533 whole entry): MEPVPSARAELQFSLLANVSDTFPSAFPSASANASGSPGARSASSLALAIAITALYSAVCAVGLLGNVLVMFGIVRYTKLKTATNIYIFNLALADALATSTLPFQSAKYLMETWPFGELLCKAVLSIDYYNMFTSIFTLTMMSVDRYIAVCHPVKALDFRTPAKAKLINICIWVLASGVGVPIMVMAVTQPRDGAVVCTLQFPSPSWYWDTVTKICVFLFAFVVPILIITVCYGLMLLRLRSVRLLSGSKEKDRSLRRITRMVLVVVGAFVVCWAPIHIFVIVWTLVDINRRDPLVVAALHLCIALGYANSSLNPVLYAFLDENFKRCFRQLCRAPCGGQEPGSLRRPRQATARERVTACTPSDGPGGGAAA

Row | Compound | Ki (μ receptor; Ki^μ, Table 1) | IC50 (μ receptors; GPI(IC50), Table 1) | ED50(PBQ) ([1]; 20 min post administration) | other results
1 | C[C@@H](NC(=O)[C@@H](N)Cc1ccc(O)cc1)C(=O)N[C@@H](Cc1ccccc1)C(=O)N[C@@H](Cc1c[nH]c2ccccc12)C(N)=O [BCH1785, H-Tyr-D-Ala-Phe-Trp-NH2] (H-Y[dA]FW-NH2) | 2.21 nM | 16 nM | >20 mg/kg | –
2 | N=C(N)NCCC[C@@H](NC(=O)[C@@H](N)Cc1ccc(O)cc1)C(=O)N[C@@H](Cc1ccccc1)C(=O)N[C@@H](CSCc1ccccc1)C(N)=O [BCH3241, H-Tyr-D-Arg-Phe-Cys(Bzl)NH2] (H-Y[dR]FC(Bn)-NH2) | 6.95 nM | 33 nM | – | –
3 | C[C@@H](NC(=O)[C@@H](N)Cc1ccc(O)cc1)C(=O)N[C@@H](Cc1ccccc1)C(=O)N1Cc2ccccc2C[C@H]1C(N)=O [BCH1780, H-Tyr-D-Ala-Phe-Tic-NH2] (H-Y[dA]F[Tic]-NH2) | 12.7 nM | – | – | –
4 | C[C@@H](NC(=O)[C@@H](N)Cc1ccc(O)cc1)C(=O)N[C@@H](Cc1c[nH]c2ccccc12)C(=O)N[C@@H](Cc1c[nH]c2ccccc12)C(N)=O [BCH1786, H-Tyr-D-Ala-Trp-Trp-NH2] (H-Y[dA]WW-NH2) | 0.833 nM | – | 10 mg/kg | –
5 | C[C@@H](NC(=O)[C@@H](N)Cc1ccc(O)cc1)C(=O)N[C@@H](Cc1ccc2ccccc2c1)C(=O)N[C@@H](Cc1cccc2ccccc12)C(N)=O [BCH758, H-Tyr-D-Ala-2′-Nal-1′-Nal-NH2] (H-Y[dA][2Nal][1Nal]-NH2) | 5.61 nM | – | >20 mg/kg | –
6 | Cc1cc(O)cc(C)c1C[C@H](N)C(=O)N[C@H](CO)C(=O)N[C@@H](Cc1ccccc1)C(=O)N[C@@H](Cc1ccccc1)C(N)=O [BCH2813, H-Dmt-D-Ser-Phe-Phe-NH2] (H-[Dmt][dS]FF-NH2) | – | – | 0.15 mg/kg | dose at which found to act centrally in the hot plate test ([2]; mouse): about 40 mg/kg
7 | C[C@@H](NC(=O)[C@@H](N)Cc1ccc(O)cc1)C(=O)N[C@@H](Cc1ccccc1)C(=O)N(C)[C@@H](Cc1ccccc1)C(N)=O [BCH1781, H-Tyr-D-Ala-Phe-Phe(NMe)-NH2] (H-Y[dA]F[NMeF]-NH2) | 22.6 nM | 241 nM | – | –
8 | C[C@@H](NC(=O)[C@@H](N)Cc1ccc(O)cc1)C(=O)N[C@H](Cc1ccccc1)C(=O)N[C@@H](Cc1ccccc1)C(N)=O [BCH1775, H-Tyr-D-Ala-D-Phe-Phe-NH2] (H-Y[dA][dF]F-NH2) | – | – | – | Ki (μ receptor): 26 nM; IC50 (μ receptors): 925 nM
9 | C[C@@H](NC(=O)[C@@H](N)Cc1ccc(O)cc1)C(=O)N[C@@H](Cc1ccc(F)cc1)C(=O)N[C@@H](Cc1ccccc1)C(N)=O [Compound #1C, H-Tyr-D-Ala-Phe(pF)-Phe-NH2] (H-Y[dA][Phe(4-F)]F-NH2) | – | – | – | Ki (μ receptor; Binding Assay Kiμ, Table 2): 0.36 nM; Binding Assay Kiδ Kiμ (μ receptor; Table 2, selectivity ratio): 559; Ki (δ receptor): 201 nM; Writhing ED50 [1]: 0.5 mg/kg
10 | NC(=O)[C@H](Cc1ccccc1)NC(=O)[C@H](Cc1ccccc1)NC(=O)[C@@H](Cc1ccccc1)NC(=O)[C@@H](N)Cc1ccc(O)cc1 [BCH753, H-Tyr-D-Phe-Phe-Phe-NH2] (H-Y[dF]FF-NH2) | 3.63 nM | 247 nM | >20 mg/kg | –
11 | C[C@@H](NC(=O)[C@@H](N)Cc1ccc(O)cc1)C(=O)N[C@@H](Cc1ccccc1)C(=O)N[C@@H](Cc1ccc(N=[N+]=[N-])cc1)C(N)=O [BCH1778, H-Tyr-D-Ala-Phe-Phe(4-N3)—NH2] (H-Y[dA]F[Phe(4-N3)]-NH2) | 1.49 nM | 50 nM | – | –
12 | NC(=O)[C@H](Cc1ccccc1)NC(=O)[C@H](Cc1ccccc1)NC(=O)[C@@H](CS)NC(=O)[C@@H](N)Cc1ccc(O)cc1 [BCH2690, H-Tyr-D-Cys-Phe-Phe-NH2] (H-Y[dC]FF-NH2) | – | – | 6.2 mg/kg | Hot Plate ([2]; mouse): >100 mg/kg
13 | C[C@@H](NC(=O)[C@@H](N)Cc1ccc(O)cc1)C(=O)N[C@@H](Cc1cccc2ccccc12)C(=O)N[C@@H](Cc1cccc2ccccc12)C(N)=O [BCH1783, H-Tyr-D-Ala-1′-Nal-1′-Nal-NH2] (H-Y[dA][1Nal][1Nal]-NH2) | 2.88 nM | – | >20 mg/kg | –
14 | C[C@@H](NC(=O)[C@@H](N)Cc1ccc(O)cc1)C(=O)N[C@@H](Cc1ccccc1)C(=O)N[C@@H](Cc1ccc2ccccc2c1)C(N)=O [BCH757, H-Tyr-D-Ala-Phe-2′-Nal-NH2] (H-Y[dA]F[2Nal]-NH2) | 0.655 nM | 2 nM | – | ED50(PBQ) ([1]; 5 min.): 1.1 (5 min.) mg/kg
15 | CCCC[C@@H](NC(=O)[C@@H](N)Cc1ccc(O)cc1)C(=O)N[C@@H](Cc1ccccc1)C(=O)N[C@@H](Cc1ccccc1)C(N)=O [BCH755, H-Tyr-D-Nle-Phe-Phe-NH2] (H-Y[dNle]FF-NH2) | 0.968 nM | 15 nM | – | ED50(PBQ) ([1]; 5 min.): 2.5 (5 min.) mg/kg
16 | C[C@@H](NC(=O)[C@@H](N)Cc1ccc(O)cc1)C(=O)N[C@@H](Cc1ccc([N+](=O)[O-])cc1)C(=O)N[C@@H](Cc1ccc([N+](=O)[O-])cc1)C(N)=O [BCH1777, H-Tyr-D-Ala-Phe(4-NO2)-Phe(4-NO2)—NH2] (H-Y[dA][Phe(4-NO2)][Phe(4-NO2)]-NH2) | 0.826 nM | 6 nM | >20 mg/kg | –
17 | C[C@@H](NC(=O)[C@@H](N)Cc1ccc(O)cc1)C(=O)N[C@@H](Cc1c[nH]c2ccccc12)C(=O)N[C@@H](Cc1ccccc1)C(N)=O [BCH1784, H-Tyr-D-Ala-Trp-Phe-NH2] (H-Y[dA]WF-NH2) | 3.57 nM | 20 nM | >20 mg/kg | –
18 | C[C@@H](NC(=O)[C@@H](N)Cc1ccc(O)cc1)C(=O)N[C@@H](Cc1ccccc1)C(=O)N[C@@H](CSCc1ccccc1)C(N)=O [BCH3240, H-Tyr-D-Ala-Phe-Cys(Bzl)NH2] (H-Y[dA]FC(Bn)-NH2) | 5.3 nM | 9.16 nM | – | –
19 | C[C@@H](NC(=O)[C@@H](N)Cc1ccc(O)cc1)C(=O)N[C@@H](Cc1ccccc1)C(=O)N[C@@H](Cc1ccc([N+](=O)[O-])cc1)C(N)=O [BCH1776, H-Tyr-D-Ala-Phe-Phe(4-NO2)—NH2] (H-Y[dA]F[Phe(4-NO2)]-NH2) | 0.509 nM | 8 nM | 4 mg/kg | –
20 | H-Y[dS]FF-NH2 [BCH2463] | – | – | 0.5 mg/kg | central analgesic effect in the mouse hot plate test [2]: No central analgesic effect was observed; reaction time in the hot plate test ([2]; mouse): about 9 seconds; Hot Plate ([2]; mouse): >100 mg/kg
21 | N=C(N)NCCC[C@@H](NC(=O)[C@@H](N)Cc1ccc(O)cc1)C(=O)N[C@@H](Cc1ccccc1)C(=O)N[C@@H](Cc1ccccc1)C(N)=O [BCH2687, H-Tyr-D-Arg-Phe-Phe-NH2] (H-Y[dR]FF-NH2) | – | – | – | Writhing ED50 [1]: 0.5 mg/kg; central analgesic effect in the mouse hot plate test [2]: No central analgesic effect was observed; reaction time in the hot plate test ([2]; mouse): approximately 8 seconds; Hot Plate ([2]; mouse): >100 mg/kg
22 | C[C@@H](NC(=O)[C@@H](N)Cc1ccc(O)cc1)C(=O)N[C@@H](Cc1ccc([N+](=O)[O-])cc1)C(=O)N[C@@H](Cc1ccccc1)C(N)=O [BCH1779, H-Tyr-D-Ala-Phe(4-NO2)-Phe-NH2] (H-Y[dA][Phe(4-NO2)]F-NH2) | 56.8 nM | 77 nM | – | –
23 | C[C@@H](NC(=O)[C@@H](N)Cc1ccc(O)cc1)C(=O)N[C@@H](Cc1ccccc1)C(=O)N[C@@H](Cc1cccc2ccccc12)C(N)=O [BCH1782, H-Tyr-D-Ala-Phe-1′-Nal-NH2] (H-Y[dA]F[1Nal]-NH2) | 0.981 nM | 2 nM | >20 mg/kg | –
